# According to PMC12502592, “Therapeutic potential of flavonols in the treatment of JCPyV” (Microbiology Spectrum, 2025):
# Tests used:
# JCPyV [1] = system: JCPyV; parameters: method as in PMID 26600871, PMID 21402853; details: relative to cidofovir; cited from earlier work
# JCPyV [2] = test: JCPyV infection assay in NHA cells (VP1 indirect immunofluorescence); type: cell-based; details: JC polyomavirus, 2 h pretreatment, MOI 10, drug maintained 120 h, normalized to DMSO
# Procedure: (§1) SVG-A cells were plated at 5,000 cells per well, and NHAs were plated at 10,000 per well. The following day, the cells were treated with the above-described dose curve of either quercetin, fisetin, or myricetin, ranging from 10 to 0.15625 µM. A DMSO (vehicle) control that was volume matched to the highest volume of each flavonol was included. The plates were pretreated with drug for 2 h at 37°C with 5% CO2. Next, the cells were incubated in 1× MEM with purified JCPyV (MOI of 10) in the continued presence of either quercetin, myricetin, fisetin, or a DMSO vehicle control matched to the highest concentration of each flavonol. Plates were incubated for 2 h at 37°C with 5% CO2 and rocked every 15 min to ensure homogenous distribution of virus in each well. Virus-containing media were then aspirated and replaced with either quercetin, myricetin, fisetin, or a volume-matched DMSO control in complete media. SVG-A cells were incubated for 72 h in the incubator at 37°C with 5% CO2. Astrocytes were incubated for 120 h at 37°C with 5% CO2. Plates were fixed in 100% ice-cold methanol and quantified using indirect immunofluorescence staining for the late viral protein VP1.
# (§2) To quantify the number of infected cells, SVG-A and NHA cells were fixed with ice-cold 100% methanol at −20°C for at least 15 min to permeabilize cells. The cells were rehydrated with 1× phosphate-buffered saline (PBS) for 15 min and rocked at room temperature. […] The cells were imaged on a Ti2-E Inverted Fluorescence Microscope (Nikon) using the 20× objective. For each plate, a random subset of 10 fields was chosen to image per well, and three wells were analyzed per condition. Images were analyzed using Elements High Content Imaging software (Nikon) to count total cells versus VP1+ cells.
# (§3) A linear regression between successive points was used to calculate the half maximal inhibitory values (IC50) from the dose curves of each drug. […] Significance was calculated using Student’s two-tailed t-test in GraphPad Prism. […]
# NHA cells = test: Viral ToxGlo toxicity assay in NHA cells; type: cell-based, human
# Procedure: (§4) SVG-A cells were plated at 5,000 cells per well, and NHAs were plated at 10,000 per well in a Corning 96-well tissue culture-treated plate. The following day, the cells were treated with a twofold dilution series of either quercetin, myricetin, or fisetin, ranging from 20 to 0.15625 µM, in phenol-free media. SVG-A cells were incubated with drug for 72 h in the incubator at 37°C with 5% CO2. NHA cells were incubated with drug for 120 h at 37°C with 5% CO2 to match the exposure times for infection. After incubation, a luciferase-based Viral ToxGlo Assay (Promega) was added to each well according to the manufacturer’s protocol. Viral ToxGlo measures the amount of ATP activity present through a luminescent signal. The cells were incubated with Viral ToxGlo lytic reagent for 10 min at 37°C with 5% CO2. Lysed cell suspension was then transferred to an opaque plate, and luciferase activity was read on the Glomax Multi-detection System (Promega, 0.5 s integration time) and normalized to a vehicle control.
# JCPyV [3] = test: Viral spread assay in SVG-A cells; type: cell-based, JC polyomavirus; details: 10 µM added 24 h post-infection, VP1+ at 3, 6 and 9 days post-infection, vs DMSO
# Procedure: (§5) For the viral spread assay, the cells were plated at a density of 5,000 cells per well for SVG-A in complete MEM, or 10,000 cells per well for NHA in complete AM, and incubated overnight at 37°C with 5% CO2. The next day, the cells were infected with purified JCPyV (MOI of 10) for 2 h to establish an infection without the presence of drugs. After infection, JCPyV media were aspirated and plates were incubated with complete media as required for each cell type. One day post-infection, the cells were incubated with the highest nontoxic dose (for SVG-A: 10 µM quercetin, 10 µM myricetin, 10 µM fisetin; for NHA: 5 µM quercetin, 10 µM myricetin, 5 µM fisetin) or a volume-matched DMSO control. Plates were incubated at 37°C with 5% CO2 and infection was measured by indirect immunofluorescence quantification at 3, 6, and 9 days post-infection in SVG-As or 5, 10, and 15 days post-infection for NHAs. At every time point, the cells were either fixed in ice-cold methanol or were supplemented with an additional 50 µL of cell media that consisted of the matched concentration of quercetin, fisetin, myricetin, or DMSO vehicle control. Cell counts were obtained by counting the total number of cells in 10 random fields per well (3 wells total per replicate) on the Ti2-E Inverted Fluorescent Microscope (Nikon).
# as §2, with “rocked at room temperature. Subsequent permeabilization was conducted with incubation in 1% Triton-X (USB) for 10 min with rocking” for “rocked”
# [4] = parameters: method as in PMID 29317180; details: amplification of hippocampal long-term potentiation; cited from earlier work
# JCPyV [5] = test: Infection time course in NHA cells; type: cell-based, JC polyomavirus; details: added at -2, 0, 2 or 24 h relative to infection, VP1+ at 120 h post-infection
# Procedure: (§6) SVG-A cells were plated at 5,000 cells per well, and NHAs were plated at 10,000 per well in a Corning 96-well tissue culture-treated plate. The following day, the cells were treated at the following four time points: 2 h before infection (−2 h; pretreatment), 0 h (co-treatment at the time of infection), 2 hs after infection (post treatment), or 24 h after infection (post-treatment). At the 2-h pretreatment time point, quercetin, myricetin, fisetin, or a volume-matched DMSO control was added in complete media. For all other time points, complete media were administered as a mock treatment. The plates were incubated for 2 h at 37°C and 5% CO2. At the 0-h time point, purified JCPyV (MOI of 10) in unsupplemented media was added to each of the time points, either alone or in the presence of drug, as appropriate for each treatment condition. In the −2 h and 0 h treated wells, quercetin, myricetin, fisetin, or a volume-matched DMSO control was added as co-treatment. All plates were infected with purified JCPyV at the same time, for 2 h at 37°C and 5% CO2. At the 2-h time point, the virus was aspirated and flavonols in complete media were added to the −2, 0, and 2 h time points. Complete media without drug or vehicle control was administered to the 24-h time point. Twenty-four hours after infection, flavonols were added to the 24-h time point, in complete media. SVG-A cells were incubated at 37°C and 5% CO2 for 72 h after infection, and NHA cells were incubated at 37°C and 5% CO2 for 120 h after infection. Plates were then stained and infection was quantified via indirect immunofluorescence.
# as §2, with “cells.” for “cells. The cells were rehydrated with 1× phosphate-buffered saline (PBS) for 15 min and rocked at room temperature.”
# JCPyV [6] = test: Viral spread assay in NHA cells; type: cell-based, JC polyomavirus; details: VP1+ at 5, 10 and 15 days post-infection, vs DMSO
# Procedure: as §5
# as §2, with “rocked at room temperature. Subsequent permeabilization was conducted with incubation in 1% Triton-X (USB) for 10 min with rocking” for “rocked”
# SVG-A cells = test: Viral ToxGlo toxicity assay in SVG-A cells; type: cell-based, human
# Procedure: as §4
# JCPyV [7] = test: Infection time course in SVG-A cells; type: cell-based, JC polyomavirus; details: 10 µM, added at -2, 0, 2 or 24 h relative to infection, VP1+ at 72 h post-infection
# Procedure: as §6
# as §2, with “cells.” for “cells. The cells were rehydrated with 1× phosphate-buffered saline (PBS) for 15 min and rocked at room temperature.”
# JCPyV [8] = test: JCPyV infection assay in SVG-A cells (VP1 indirect immunofluorescence); type: cell-based; details: JC polyomavirus, 2 h pretreatment, MOI 10, drug maintained 72 h, normalized to DMSO
# Procedure: as §1, §2, §3
# [9] = parameters: method as in PMID 14980703, PMID 28528183; details: U251 cells; cited from earlier work
SMILES,"concentration reducing JCPyV DNA copy number, fold smaller than cidofovir (JCPyV [1]) [×]",IC50 (JCPyV [2]) [µM],"highest nontoxic dose (NHA cells; human, 120 h) [µM]",inhibition of viral spread in established infection (JCPyV [3]),crossing of the BBB in vivo [4],inhibition of JCPyV infection by time of addition (JCPyV [5]; 5 µM),inhibition of viral spread in established infection (JCPyV [6]; 5 µM added 24 h post-infection),"highest nontoxic dose (SVG-A cells; human, 72 h) [µM]",inhibition of JCPyV infection by time of addition (JCPyV [7]),IC50 (JCPyV [8]) [µM],highest nontoxic dose (NHA cells; NHA cells) [µM],inhibition of JCPyV infection by time of addition (JCPyV [5]; 10 µM),inhibition of viral spread in established infection (JCPyV [6]; 10 µM added 24 h post-infection),highest nontoxic dose (SVG-A cells; SVG-A cells) [µM],crossing of the BBB in in vitro models [9]
CCCCCCCCCCCCCCCCOCCCOP(=O)(O)CO[C@H](CO)Cn1ccc(N)nc1=O [Brincidofovir],100,–,–,–,–,–,–,–,–,–,–,–,–,–,–
O=c1c(O)c(-c2ccc(O)c(O)c2)oc2cc(O)ccc12 [fisetin],–,3.72,5,"inhibit viral spread in SVG-A cells at 3, 6, and 9 days post-infection",found to cross the BBB in vivo,maintained their ability to inhibit infection even when administered at 24 h post-infection,significantly reduce JCPyV infection at all time points,10,inhibited infection at all time points up to and including 24 h post-infection,5.76,–,–,–,–,–
O=c1c(O)c(-c2cc(O)c(O)c(O)c2)oc2cc(O)cc(O)c12 [myricetin],–,4.47,–,no significant reduction in viral spread compared to DMSO control,–,–,–,–,effective only when given 2 h before infection or at the time of infection,8.07,10,lost by 2 h post-infection,without effect,10,–
O=c1c(O)c(-c2ccc(O)c(O)c2)oc2cc(O)cc(O)c12 [quercetin],–,2.51,–,"inhibit viral spread in SVG-A cells at 3, 6, and 9 days post-infection",–,maintained their ability to inhibit infection even when administered at 24 h post-infection,significantly reduce JCPyV infection at all time points,–,inhibited infection at all time points up to and including 24 h post-infection,6.04,5,–,–,10,up to 65%
